In the assay the target is native CB1 receptors (Rattus norvegicus, UniProt P20272). The assay can be described thus: CB1 receptor rat binding assay ([3H]SR141716A, rat brain membranes). To be noted: rat brain membranes, [3H]SR141716A; for Ki: read-out: Binding rat pKi (converted).

Results on 60 molecules are retold here after patent publication US20080090805A1, “CB-1 MODULATING COMPOUNDS AND THEIR USE” (ACADIA PHARMACEUTICALS INC., priority 2005, published 2008).

Chain of native CB1 receptors (P20272 whole entry): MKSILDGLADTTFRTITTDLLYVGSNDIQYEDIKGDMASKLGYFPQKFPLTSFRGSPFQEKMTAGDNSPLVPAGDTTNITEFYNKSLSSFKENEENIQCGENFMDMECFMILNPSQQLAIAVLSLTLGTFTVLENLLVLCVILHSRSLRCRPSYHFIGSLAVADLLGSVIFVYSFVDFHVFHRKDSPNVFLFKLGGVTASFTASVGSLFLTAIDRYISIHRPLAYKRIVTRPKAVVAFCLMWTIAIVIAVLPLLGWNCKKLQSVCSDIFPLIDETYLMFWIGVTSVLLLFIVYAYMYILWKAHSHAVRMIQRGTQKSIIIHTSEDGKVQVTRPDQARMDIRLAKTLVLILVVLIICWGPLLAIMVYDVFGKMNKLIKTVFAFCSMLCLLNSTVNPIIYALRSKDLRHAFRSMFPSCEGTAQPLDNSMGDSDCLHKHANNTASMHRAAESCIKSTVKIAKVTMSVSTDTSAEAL

Consider `O=C(NCc1ccc(Cl)cc1Cl)c1ccc2c(c1)N=C(c1ccc(Cl)cc1)c1ccccc1S2` [drawing 1421], for which the Ki was 39.8 nM.
Turning to `Cc1cnc(-c2ccc3c(c2)N=C(c2ccc(Cl)cc2)c2ccccc2S3)[nH]1` [drawing 1371], the “Binding rat Inh %” value was 84% and the Ki was 31.6 nM.
`O=C(NCc1ccccc1)c1ccc2c(c1)N=C(N1CCCCC1)c1ccccc1S2` [drawing 1253]: the Ki is 15.8 nM.
`CCOCCNC(=O)c1ccc2c(c1)N=C(c1ccc(Cl)cc1)c1ccccc1S2` [drawing 1504]: the “Binding rat Inh %” value stood at 71% and the Ki is 79.4 nM.
In the case of `CCCC1=Nc2cc(C(=O)NCC(C)c3ccccc3)ccc2Sc2ccccc21` (centres unmarked) [drawing 1395], the Ki was 31.6 nM.
As to `O=C(NCc1cccnc1)c1ccc2c(c1)N=C(c1ccccc1F)c1ccccc1S2` [drawing 1318], the “Binding rat Inh %” value came to 73% and the Ki was 25.1 nM.
As for `O=C(NN1CCCCC1)c1ccc2c(c1)N=C(c1ccc(Cl)cn1)c1ccccc1S2` [drawing 1373], the “Binding rat Inh %” value came to 95% and the Ki was 31.6 nM.
Take `O=C(NCCC(F)(F)F)c1ccc2c(c1)N=C(c1ccc(Cl)cc1)c1ccccc1S2` [drawing 1360]: the “Binding rat Inh %” value was determined as 99% and the Ki was 3.98 nM.
As for `CCCC1=Nc2cc(C(=O)NC3CCC(C)CC3)ccc2Sc2ccccc21` (centres unmarked) [drawing 1437], the Ki was 50.1 nM.
On to `O=C(NCCc1cccnc1)c1ccc2c(c1)N=C(c1ccc(Cl)s1)c1ccccc1S2` [drawing 1466], for which the “Binding rat Inh %” value turned out to be 98% and the Ki was 7.94 nM.
For `CCCCNC(=O)c1ccc2c(c1)N=C(c1ccc(F)c(F)c1)c1ccccc1S2` the same measures were 102% and 2.51 nM.
For `CC(C)NC(=O)c1ccc2c(c1)N=C(c1cccc(Cl)c1)c1ccccc1S2` [drawing 1269], the “Binding rat Inh %” value is 83% and the Ki was 20 nM.
Turning to `Cc1cccc(C2=Nc3cc(C(=O)NCC(C)C)ccc3Sc3ccccc32)n1` [drawing 1472], the “Binding rat Inh %” value is 96% and the Ki was 7.94 nM.
Regarding `CC(NC(=O)c1ccc2c(c1)N=C(c1cccc(Cl)c1)c1ccccc1S2)c1ccccc1` (centres unmarked) [drawing 1465], the Ki is 7.94 nM.
Take `C[C@@H]1CCC[C@H](C)N1NC(=O)c1ccc2c(c1)N=C(c1cccc(Cl)c1)c1ccccc1S2` [drawing 1526]: the “Binding rat Inh %” value stood at 73% and the Ki is 10 nM.
`O=C(c1ccc2c(c1)N=C(c1ccc(F)cc1)c1ccccc1S2)N1CCCCC1` [drawing 1544]: the Ki is 100 nM.
`O=C(NC1CCC(F)(F)CC1)c1ccc2c(c1)N=C(c1ccccn1)c1ccccc1S2` [drawing 1414]: the “Binding rat Inh %” value is 73% and the Ki was 39.8 nM.
`O=C(NC1CCCCC1)c1ccc2c(c1)N=C(c1ccccc1F)c1ccccc1S2` [drawing 1539]: the “Binding rat Inh %” value was 83% and the Ki is 12.6 nM.
Regarding `O=C(NCc1cccc(Cl)c1)c1ccc2c(c1)N=C(c1cccc(Cl)c1)c1ccccc1S2` [drawing 1264], the Ki is 1.58 nM.
On to `O=C(NCCc1ccncc1)c1ccc2c(c1)N=C(c1ccc(F)cc1)c1ccccc1S2` [drawing 1220], for which the “Binding rat Inh %” value is listed as 103% and the Ki is 15.8 nM.
Take `O=C(NCc1ccccc1Br)c1ccc2c(c1)N=C(C1CCCCC1)c1ccccc1S2` [drawing 1392]: the Ki is 5.01 nM.
For the molecule `Clc1ccc(C2=Nc3cc(-c4ncc[nH]4)ccc3Sc3ccccc32)cc1` [drawing 1485], the “Binding rat Inh %” value turned out to be 81% and the Ki was 63.1 nM.
Consider `CCCCNC(=O)c1ccc2c(c1)N=C(c1ccccc1F)c1ccccc1S2` [drawing 1348], for which the Ki is 25.1 nM.
As for `CCCCNC(=O)c1ccc2c(c1)N=C(c1cccc(F)c1)c1ccccc1S2` [drawing 1498], the “Binding rat Inh %” value was found to be 82% and the Ki is 10 nM.
Taken in the same sequence, the figures for `O=C(NCc1ccco1)c1ccc2c(c1)N=C(c1ccc(Cl)c(Cl)c1)c1ccccc1S2` [drawing 1402] were 84% and 6.31 nM.
Turning to `C[C@@H]1CCC[C@H](C)N1NC(=O)c1ccc2c(c1)N=C(c1ccc(Cl)c(Cl)c1)c1ccccc1S2` [drawing 1393], the “Binding rat Inh %” value came out at 114% and the Ki is 5.01 nM.
As to `Cc1ccc(CNC(=O)c2ccc3c(c2)N=C(c2ccc(Cl)c(Cl)c2)c2ccccc2S3)o1` [drawing 1320], the “Binding rat Inh %” value came out at 96% and the Ki is 3.16 nM.
Taken in the same sequence, the figures for `O=C(NCCc1cccnc1)c1ccc2c(c1)N=C(c1cccc(Cl)c1)c1ccccc1S2` [drawing 1293] were 97% and 20 nM.
As to `Cc1ccc(CNC(=O)c2ccc3c(c2)N=C(c2ccc(F)cc2)c2ccccc2S3)o1` [drawing 1239], the “Binding rat Inh %” value came out at 108% and the Ki is 0.794 nM.
In the case of `O=C(NCc1cccc(Cl)c1)c1ccc2c(c1)N=C(c1ccc(F)cc1)c1ccccc1S2` [drawing 1266], the Ki is 1.58 nM.
Turning to `CC(C)CNC(=O)c1ccc2c(c1)N=C(c1ccc(Cl)s1)c1ccc(F)cc1S2` [drawing 1359], the “Binding rat Inh %” value was determined as 95% and the Ki is 3.98 nM.
For `CCCNC(=O)c1ccc2c(c1)N=C(c1ccc(F)cc1)c1ccccc1S2` [drawing 1262] the same measures were 87% and 20 nM.
For the molecule `CCONC(=O)c1ccc2c(c1)N=C(c1ccc(Cl)c(Cl)c1)c1ccccc1S2` [drawing 1512], the “Binding rat Inh %” value was determined as 73% and the Ki is 79.4 nM.
Take `CC(CNC(=O)c1ccc2c(c1)N=C(c1ccccc1F)c1ccccc1S2)c1ccccc1` (centres unmarked) [drawing 1214]: the Ki was 15.8 nM.
On the same count and under the same terms, with `O=C(NCCc1ccccc1)c1ccc2c(c1)N=C(c1cccc(Cl)c1)c1ccccc1S2` [drawing 1322] the figure was 3.16 nM; with `O=C(NCc1cccc(Cl)c1)c1ccc2c(c1)N=C(c1ccc(Cl)cc1)c1ccccc1S2` [drawing 1257], 1.26 nM.
Turning to `NS(=O)(=O)c1ccc(CNC(=O)c2ccc3c(c2)N=C(c2ccc(Cl)cc2)c2ccccc2S3)cc1` [drawing 1486], the “Binding rat Inh %” value stood at 66% and the Ki was 63.1 nM.
`Cc1ccsc1C1=Nc2cc(C(=O)NN3CCCCCC3)ccc2Sc2ccccc21` [drawing 1507]: the “Binding rat Inh %” value is reported as 76% and the Ki was 10 nM.
For `N#Cc1ccc(C2=Nc3cc(C(=O)NNCc4ccccc4)ccc3Sc3ccccc32)cc1` [drawing 1538] the same measures were 65% and 100 nM.
As to `O=C(NNC(=O)c1ccc2c(c1)N=C(c1ccc(F)cc1)c1ccccc1S2)c1ccccc1` [drawing 1519], the “Binding rat Inh %” value amounted to 79% and the Ki is 79.4 nM.
Turning to `CC(C)CNC(=O)c1ccc2c(c1)N=C(c1ccc(Cl)cc1)c1ccccc1S2` [drawing 1314], the “Binding rat Inh %” value was found to be 92% and the Ki was 3.16 nM.
Turning to `Cc1csc(CNC(=O)c2ccc3c(c2)N=C(c2ccsc2)c2ccccc2S3)c1` [drawing 1313], the “Binding rat Inh %” value is reported as 106% and the Ki was 3.16 nM.
`O=C(NCc1ccc(Cl)cc1Cl)c1ccc2c(c1)N=C(N1CCCCC1)c1ccccc1S2` [drawing 1514]: the Ki was 79.4 nM.
For `CCCCNC(=O)c1ccc2c(c1)N=C(c1sccc1C)c1ccccc1S2` [drawing 1244], the “Binding rat Inh %” value came to 103% and the Ki was 15.8 nM.
With `O=C(NCCc1cccc(Cl)c1)c1ccc2c(c1)N=C(C1CCCCC1)c1ccccc1S2` [drawing 1499], the Ki was 10 nM.
With `CC(C)CNC(=O)c1ccc2c(c1)N=C(c1ccc(F)cn1)c1ccccc1S2` [drawing 1254], the “Binding rat Inh %” value is reported as 97% and the Ki is 15.8 nM.
With `Cc1ccsc1C1=Nc2cc(C(=O)NCc3cccs3)ccc2Sc2ccccc21` [drawing 1344], the “Binding rat Inh %” value is given as 99% and the Ki was 3.98 nM.
`CCCC1=Nc2cc(C(=O)NCCCc3ccccc3)ccc2Sc2ccccc21` [drawing 1357]: the Ki is 31.6 nM.
For the molecule `CC(C)NC(=O)c1ccc2c(c1)N=C(c1ccc(Cl)s1)c1ccccc1S2` [drawing 1445], the “Binding rat Inh %” value was 85% and the Ki was 50.1 nM.
Regarding `O=C(NCc1ccccc1Br)c1ccc2c(c1)N=C(N1CCCCC1)c1ccccc1S2` [drawing 1275], the Ki was 20 nM.
For `CCCCNC(=O)c1cc2c(cc1O)Sc1ccccc1C(c1ccc(Cl)cc1)=N2` [drawing 1410], the “Binding rat Inh %” value is listed as 103% and the Ki was 6.31 nM.
In the case of `CC(C)CNC(=O)c1ccc2c(c1)N=C(c1ccccc1F)c1ccccc1S2` [drawing 1307], the “Binding rat Inh %” value is reported as 90% and the Ki is 20 nM.
For the molecule `CCCCNC(=O)c1ccc2c(c1)N=C(c1cccc(Cl)c1)c1cc(F)ccc1S2` [drawing 1447], the “Binding rat Inh %” value was determined as 108% and the Ki is 7.94 nM.
As for `O=C(NCc1cccnc1)c1ccc2c(c1)N=C(c1ccc(Br)cc1)c1ccccc1S2` [drawing 1180], the “Binding rat Inh %” value came to 72% and the Ki was 12.6 nM.
On to `O=C(NCCc1ccc(Cl)cc1)c1ccc2c(c1)N=C(C1CCCCC1)c1ccccc1S2` [drawing 1280], for which the Ki was 2 nM.
For `CC(C)NC(=O)c1ccc2c(c1)N=C(c1ccc(F)cc1)c1ccccc1S2` [drawing 1429], the “Binding rat Inh %” value is listed as 80% and the Ki is 50.1 nM.
Turning to `O=C(NCc1cccc(Cl)c1)c1ccc2c(c1)N=C(N1CCCCC1)c1ccccc1S2(=O)=O` [drawing 1428], the Ki is 50.1 nM.
Turning to `O=C(NC1CCC(F)(F)CC1)c1ccc2c(c1)N=C(c1cccc(Cl)c1)c1ccccc1S2` [drawing 1242], the “Binding rat Inh %” value amounted to 79% and the Ki is 1 nM.
Turning to `O=C(NCCCC(F)(F)F)c1ccc2c(c1)N=C(c1ccsc1)c1ccccc1S2` [drawing 1233], the “Binding rat Inh %” value came out at 97% and the Ki was 0.794 nM.
Regarding `CCCCNC(=O)c1ccc2c(c1)N=C(c1ccc(Cl)s1)c1cc(F)ccc1S2` [drawing 1515], the “Binding rat Inh %” value stood at 96% and the Ki was 10 nM.
